Experimental data from patent US12528826B2, “[1,4]oxazepino[2,3-c]quinolinone derivatives as BCL6 inhibitors” (Cancer Research Technology Limited, priority 2019, dated 2026).

Target: T1, Trx-6×His-BCL6 (human BCL6 BTB domain covering amino-acid sequence 5-129) (Homo sapiens, UniProt P41182)
T1 construct: made in house
Test: HTRF assay (BCL6 / BCOR peptide)
Format: binding
Details: 1 nM Trx-6×His-BCL6, 300 nM BCOR-AF633 peptide, 2 hours incubation at room temperature
Procedure: After 2 hours incubation at room temperature the plate was read on a Pherastar FSX (BMG Labtech) plate reader equipped with 337 nm laser excitation filter, a first emission filter at 620 nm and a second emission filter at 665 nm. The % inhibition at each concentration was calculated by normalising FRET ratio to the appropriate high (DMSO with all reagents) and low (DMSO without BCL6) controls.

HTRF avg pIC50	SMILES
8.43	COC1CN(c2ncc(Cl)c(Nc3ccc4c(c3)c3c(c(=O)n4C)OCC(F)(F)[C@H](C4CC4)N3)n2)C1 [Example 11w, (S)-10-((5-chloro-2-(3-methoxyazetidin-1-yl)pyrimidin-4-yl)amino)-2-cyclopropyl-3,3-difluoro-7-methyl-1,2,3,4-tetrahydro-[1,4]oxazepino[2,3-c]quinolin-6(7H)-one]

Same assay, conditions: 1 nM Trx-6×His-BCL6, 300 nM BCOR-AF633 peptide, 2 hours incubation at room temperature; read-out: HTRF avg pIC50 (converted)

IC50	SMILES
4.17 nM	CCNC(=O)C1CN(c2ncc(Cl)c(Nc3ccc4c(c3)c3c(c(=O)n4C)OCC(F)(F)[C@H](C4CC4)N3)n2)CCC1(F)F (mixture of isomers) [Example 9j, (R)-1-(5-chloro-4-(((S)-2-cyclopropyl-3,3-difluoro-7-methyl-6-oxo-1,2,3,4,6,7-hexahydro-[1,4]oxazepino[2,3-c]quinolin-10-yl)amino)pyrimidin-2-yl)-N-ethyl-4,4-difluoropiperidine-3-carboxamide; (S)-1-(5-chloro-4-(((S)-2-cyclopropyl-3,3-difluoro-7-methyl-6-oxo-1,2,3,4,6,7-hexahydro-[1,4]oxazepino[2,3-c]quinolin-10-yl)amino)pyrimidin-2-yl)-N-ethyl-4,4-difluoropiperidine-3-carboxamide]
5.01 nM	COC1CCCN(c2ncc(Cl)c(Nc3ccc4c(c3)c3c(c(=O)n4C)OCC(F)(F)[C@H](C4CC4)N3)n2)C1 (mixture of isomers) [Example 10c, (S)-10-((5-chloro-2-((R)-3-methoxypiperidin-1-yl)pyrimidin-4-yl)amino)-2-cyclopropyl-3,3-difluoro-7-methyl-1,2,3,4-tetrahydro-[1,4]oxazepino[2,3-c]quinolin-6(7H)-one; (S)-10-((5-chloro-2-((S)-3-methoxypiperidin-1-yl)pyrimidin-4-yl)amino)-2-cyclopropyl-3,3-difluoro-7-methyl-1,2,3,4-tetrahydro-[1,4]oxazepino[2,3-c]quinolin-6(7H)-one]
4.27 nM	Cn1c(=O)c2c(c3cc(Nc4nc(N5CCC[C@H](CO)C5)ncc4Cl)ccc31)N[C@@H](C1CC1)C(F)(F)CO2 [Example 9q, (S)-10-((5-chloro-2-((S)-3-(hydroxymethyl)piperidin-1-yl)pyrimidin-4-yl)amino)-2-cyclopropyl-3,3-difluoro-7-methyl-1,2,3,4-tetrahydro-[1,4]oxazepino[2,3-c]quinolin-6(7H)-one]
1.51 nM	Cn1c(=O)c2c(c3cc(Nc4nc(N5[C@@H]6COC[C@H]5C[C@@H](O)C6)ncc4F)ccc31)N[C@@H](C1CC1)C(F)(F)CO2 [Example 5a, (S)-2-cyclopropyl-3,3-difluoro-10-((5-fluoro-2-((1R,5S,7R)-7-hydroxy-3-oxa-9-azabicyclo[3.3.1]nonan-9-yl)pyrimidin-4-yl)amino)-7-methyl-1,2,3,4-tetrahydro-[1,4]oxazepino[2,3-c]quinolin-6(7H)-one]
10.2 nM	Cn1c(=O)c2c(c3cc(Nc4nc(N5CCCC(CF)C5)ncc4Cl)ccc31)N[C@@H](C1CC1)C(F)(F)CO2 (mixture of isomers) [Example 9f, (S)-10-((5-chloro-2-((R)-3-(fluoromethyl)piperidin-1-yl)pyrimidin-4-yl)amino)-2-cyclopropyl-3,3-difluoro-7-methyl-1,2,3,4-tetrahydro-[1,4]oxazepino[2,3-c]quinolin-6(7H)-one; (S)-10-((5-chloro-2-((S)-3-(fluoromethyl)piperidin-1-yl)pyrimidin-4-yl)amino)-2-cyclopropyl-3,3-difluoro-7-methyl-1,2,3,4-tetrahydro-[1,4]oxazepino[2,3-c]quinolin-6(7H)-one]
4.17 nM	CN(CC(C)(C)O)c1ncc(Cl)c(Nc2ccc3c(c2)c2c(c(=O)n3C)OCC(F)(F)[C@H](C3CC3)N2)n1 [Example 9u, (S)-10-((5-chloro-2-((2-hydroxy-2-methylpropyl)(methyl)amino)pyrimidin-4-yl)amino)-2-cyclopropyl-3,3-difluoro-7-methyl-1,2,3,4-tetrahydro-[1,4]oxazepino[2,3-c]quinolin-6(7H)-one]
11.5 nM	Cn1c(=O)c2c(c3cc(Nc4nc(N5CC(C(F)F)C5)ncc4Cl)ccc31)N[C@@H](C1CC1)C(F)(F)CO2 [Example 11u, (S)-10-((5-chloro-2-(3-(difluoromethyl)azetidin-1-yl)pyrimidin-4-yl)amino)-2-cyclopropyl-3,3-difluoro-7-methyl-1,2,3,4-tetrahydro-[1,4]oxazepino[2,3-c]quinolin-6(7H)-one]
2.69 nM	CN(C)[C@@H]1CCCN(c2ncc(Cl)c(Nc3ccc4c(c3)c3c(c(=O)n4C)OCC(F)(F)[C@H](C4CC4)N3)n2)C1 [Example 9i, (S)-10-((5-chloro-2-((R)-3-(dimethylamino)piperidin-1-yl)pyrimidin-4-yl)amino)-2-cyclopropyl-3,3-difluoro-7-methyl-1,2,3,4-tetrahydro-[1,4]oxazepino[2,3-c]quinolin-6(7H)-one]

Second part, the compound before the results:

SMILES	IC50
Cn1c(=O)c2c(c3cc(Nc4nc(N5CC(CO)C5)ncc4Cl)ccc31)N[C@@H](C1CC1)C(F)(F)CO2 [Example 12x32, (S)-10-((5-chloro-2-(3-(hydroxymethyl)azetidin-1-yl)pyrimidin-4-yl)amino)-2-cyclopropyl-3,3-difluoro-7-methyl-1,2,3,4-tetrahydro-[1,4]oxazepino[2,3-c]quinolin-6(7H)-one]	3.72 nM
CC1CC(CC(=O)N2CC(F)(F)C2)CN(c2ncc(Cl)c(Nc3ccc4c(c3)c3c(c(=O)n4C)OCC(F)(F)[C@H](C4CC4)N3)n2)C1 (single isomer, unassigned) [Example 12x17b]	13.2 nM
Cn1c(=O)c2c(c3cc(Nc4nc(N5C[C@H](O)C[C@H](F)C5)ncc4Cl)ccc31)N[C@@H](C1CC1)C(F)(F)CO2 [Example 9a-1, (S)-10-((5-chloro-2-((3S,5R)-3-fluoro-5-hydroxypiperidin-1-yl)pyrimidin-4-yl)amino)-2-cyclopropyl-3,3-difluoro-7-methyl-1,2,3,4-tetrahydro-[1,4]oxazepino[2,3-c]quinolin-6(7H)-one]	1.82 nM
Cc1noc(-c2cc(Nc3ccc4c(c3)c3c(c(=O)n4C)OCC(F)(F)[C@H](C4CC4)N3)c(Cl)cn2)n1 [Example 4a, (S)-10-((5-chloro-2-(3-methyl-1,2,4-oxadiazol-5-yl)pyridin-4-yl)amino)-2-cyclopropyl-3,3-difluoro-7-methyl-1,2,3,4-tetrahydro-[1,4]oxazepino[2,3-c]quinolin-6(7H)-one]	3.47 nM
Cn1c(=O)c2c(c3cc(Nc4nc(N5CCCC6CC65)ncc4Cl)ccc31)N[C@@H](C1CC1)C(F)(F)CO2 (stereo partly drawn) [Example 12x25, (2S)-10-((2-(2-azabicyclo[4.1.0]heptan-2-yl)-5-chloropyrimidin-4-yl)amino)-2-cyclopropyl-3,3-difluoro-7-methyl-1,2,3,4-tetrahydro-[1,4]oxazepino[2,3-c]quinolin-6(7H)-one]	15.8 nM
C[C@H]1CN(c2ncc(F)c(Nc3ccc4c(c3)c3c(c(=O)n4C)OCC(F)(F)[C@H](C4CC4)N3)n2)CCO1 [Example 13p08, (S)-2-cyclopropyl-3,3-difluoro-10-((5-fluoro-2-((S)-2-methylmorpholino)pyrimidin-4-yl)amino)-7-methyl-1,2,3,4-tetrahydro-[1,4]oxazepino[2,3-c]quinolin-6(7H)-one]	10.5 nM
CC1CN(c2ncc(F)c(Nc3ccc4c(c3)c3c(c(=O)n4C)OCC(F)(F)[C@H](C4CC4)N3)n2)CC(C)C1(F)F (stereo partly drawn) [Example 13p01, (2S)-2-cyclopropyl-10-((2-(4,4-difluoro-3,5-dimethylpiperidin-1-yl)-5-fluoropyrimidin-4-yl)amino)-3,3-difluoro-7-methyl-1,2,3,4-tetrahydro-[1,4]oxazepino[2,3-c]quinolin-6(7H)-one]	85.1 nM
[2H]C([2H])([2H])n1c(=O)c2c(c3cc(Nc4nc(N5C6CCC5COC6)ncc4Cl)cnc31)N[C@@H](C1CC1)C(F)(F)CO2 [Example 3a, (S)-10-((2-(3-oxa-8-azabicyclo[3.2.1]octan-8-yl)-5-chloropyrimidin-4-yl)amino)-2-cyclopropyl-3,3-difluoro-7-(methyl-d3)-1,2,3,4-tetrahydro-[1,4]oxazepino[2,3-c][1,8]naphthyridin-6(7H)-one]	1.62 nM
CC1CCC(C)N(c2ncc(Cl)c(Nc3ccc4c(c3)c3c(c(=O)n4C)OCC(F)(F)[C@H](C4CC4)N3)n2)C1 (stereo partly drawn) [Example 12x12, (2S)-10-((5-chloro-2-(2,5-dimethylpiperidin-1-yl)pyrimidin-4-yl)amino)-2-cyclopropyl-3,3-difluoro-7-methyl-1,2,3,4-tetrahydro-[1,4]oxazepino[2,3-c]quinolin-6(7H)-one]	56.2 nM
[2H]C([2H])([2H])N1CCN(c2ncc(Cl)c(Nc3ccc4c(c3)c3c(c(=O)n4C)OCC(F)(F)[C@H](C4CC4)N3)n2)CC(O)C1 (stereo partly drawn) [Example 12x15-d3, (2S)-10-((5-chloro-2-(6-hydroxy-4-(methyl-d3)-1,4-diazepan-1-yl)pyrimidin-4-yl)amino)-2-cyclopropyl-3,3-difluoro-7-methyl-1,2,3,4-tetrahydro-[1,4]oxazepino[2,3-c]quinolin-6(7H)-one]	1.78 nM
Cn1c(=O)c2c(c3cc(Nc4cc(N5CCC(F)(F)CC5)ncc4F)ccc31)N[C@@H](C1CC1)C(F)(F)CO2 [Example 13f04, (S)-2-cyclopropyl-10-((2-(4,4-difluoropiperidin-1-yl)-5-fluoropyridin-4-yl)amino)-3,3-difluoro-7-methyl-1,2,3,4-tetrahydro-[1,4]oxazepino[2,3-c]quinolin-6(7H)-one]	58.9 nM
